Measured values: the supplement of paper PMC10883282

Tests used:
Test in all cases: relative viability vs DMSO control (72 h) (fraction); higher = more viable cells
[1] = tested on: A204
Procedure, shortened: (§1)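 Percent growth from ATPLite readings, averaged over up to triplicate wells, was used as relative viability. Sarcoma cell lines were seeded into 384-well plates for 80–90% confluence, dosed after 24 h, and kept 72 h at 37 °C, 5% CO2. Data were rescaled to a range where 1 is full and 0 is none.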

[2] = tested on: G401
Procedure, shortened: as §1

[3] = tested on: HS729
Procedure, shortened: as §1

[4] = tested on: HT1080
Procedure, shortened: as §1

[5] = tested on: KHOS-NP
Procedure, shortened: as §1

[6] = tested on: MES-SA
Procedure, shortened: as §1

[7] = tested on: SK-LMS-1
Procedure, shortened: as §1

[8] = tested on: SW1353
Procedure, shortened: as §1

[9] = tested on: SW684
Procedure, shortened: as §1

[10] = tested on: SW872
Procedure, shortened: as §1

[11] = tested on: SYO-1
Procedure, shortened: as §1

[12] = tested on: VA-ES-BJ
Procedure, shortened: as §1

Clc1ccc(Nc2nnc(Cc3ccncc3)c3ccccc23)cc1 [Vatalanib]
Conditions | relative viability
[1], 0.00017 µM | 1.05
[1], 0.00051 µM | 1.09
[1], 0.00152 µM | 1.04
[1], 0.00457 µM | 1.03
[1], 0.01372 µM | 1.04
[1], 0.04115 µM | 1.02
[1], 0.1235 µM | 0.972
[1], 0.3704 µM | 0.904
[1], 1.111 µM | 0.7796
[1], 3.333 µM | 0.483
[1], 10 µM | 0.365
[2], 0.00017 µM | 0.965
[2], 0.00051 µM | 0.975
[2], 0.00152 µM | 0.954
[2], 0.00457 µM | 0.973
[2], 0.01372 µM | 0.979
[2], 0.04115 µM | 1
[2], 0.1235 µM | 0.947
[2], 0.3704 µM | 0.985
[2], 1.111 µM | 0.933
[2], 3.333 µM | 0.876
[2], 10 µM | 0.7239
[3], 0.00017 µM | 0.874
[3], 0.00051 µM | 0.906
[3], 0.00152 µM | 0.915
[3], 0.00457 µM | 0.88
[3], 0.01372 µM | 0.916
[3], 0.04115 µM | 0.896
[3], 0.1235 µM | 0.864
[3], 0.3704 µM | 0.871
[3], 1.111 µM | 0.832
[3], 3.333 µM | 0.898
[3], 10 µM | 0.934
[4], 0.00017 µM | 1.01
[4], 0.00051 µM | 0.995
[4], 0.00152 µM | 0.989
[4], 0.00457 µM | 1.01
[4], 0.01372 µM | 0.993
[4], 0.04115 µM | 0.9838
[4], 0.1235 µM | 0.986
[4], 0.3704 µM | 1
[4], 1.111 µM | 1.021
[4], 3.333 µM | 1.02
[4], 10 µM | 1.07
[5], 0.00017 µM | 1.041
[5], 0.00051 µM | 1.054
[5], 0.00152 µM | 1.04
[5], 0.00457 µM | 1.06
[5], 0.01372 µM | 1.03
[5], 0.04115 µM | 1.05
[5], 0.1235 µM | 1.058
[5], 0.3704 µM | 1.062
[5], 1.111 µM | 1.07
[5], 3.333 µM | 1.07
[5], 10 µM | 1.08
[6], 0.00017 µM | 0.897
[6], 0.00051 µM | 0.905
[6], 0.00152 µM | 0.908
[6], 0.00457 µM | 0.902
[6], 0.01372 µM | 0.925
[6], 0.04115 µM | 0.92
[6], 0.1235 µM | 0.922
[6], 0.3704 µM | 0.938
[6], 1.111 µM | 0.937
[6], 3.333 µM | 0.919
[6], 10 µM | 0.854
[7], 0.00017 µM | 1.03
[7], 0.00051 µM | 1.02
[7], 0.00152 µM | 0.992
[7], 0.00457 µM | 1
[7], 0.01372 µM | 1.026
[7], 0.04115 µM | 1
[7], 0.1235 µM | 1.016
[7], 0.3704 µM | 0.9565
[7], 1.111 µM | 0.967
[7], 3.333 µM | 0.938
[7], 10 µM | 0.858
[8], 0.00017 µM | 0.9762
[8], 0.00051 µM | 0.9786
[8], 0.00152 µM | 0.939
[8], 0.00457 µM | 0.962
[8], 0.01372 µM | 0.935
[8], 0.04115 µM | 0.9589
[8], 0.1235 µM | 0.966
[8], 0.3704 µM | 0.978
[8], 1.111 µM | 0.93
[8], 3.333 µM | 0.934
[8], 10 µM | 0.881
[9], 0.00017 µM | 1.13
[9], 0.00051 µM | 1.0999
[9], 0.00152 µM | 1.09
[9], 0.00457 µM | 1.11
[9], 0.01372 µM | 1.11
[9], 0.04115 µM | 1.1
[9], 0.1235 µM | 1.08
[9], 0.3704 µM | 1.12
[9], 1.111 µM | 1.09
[9], 3.333 µM | 1.03
[9], 10 µM | 1.03
[10], 0.00017 µM | 1.01
[10], 0.00051 µM | 1.01
[10], 0.00152 µM | 1.02
[10], 0.00457 µM | 1.026
[10], 0.01372 µM | 0.9937
[10], 0.04115 µM | 1.02
[10], 0.1235 µM | 1.022
[10], 0.3704 µM | 1.021
[10], 1.111 µM | 1.02
[10], 3.333 µM | 1.03
[10], 10 µM | 0.971
[11], 0.00017 µM | 0.921
[11], 0.00051 µM | 0.915
[11], 0.00152 µM | 0.937
[11], 0.00457 µM | 0.926
[11], 0.01372 µM | 0.929
[11], 0.04115 µM | 0.929
[11], 0.1235 µM | 0.906
[11], 0.3704 µM | 0.882
[11], 1.111 µM | 0.807
[11], 3.333 µM | 0.735
[11], 10 µM | 0.651
[12], 0.00017 µM | 1.01
[12], 0.00051 µM | 1.01
[12], 0.00152 µM | 1
[12], 0.00457 µM | 1.04
[12], 0.01372 µM | 1.02
[12], 0.04115 µM | 1.02
[12], 0.1235 µM | 1.03
[12], 0.3704 µM | 1.05
[12], 1.111 µM | 1.02
[12], 3.333 µM | 1.07
[12], 10 µM | 1.05
